Test results reported in patent US20120039957A1 (ACURA PHARMACEUTICALS, INC., priority 2010, published 2012).

Tests used:
[1] = for mean time to peak disliking / mean peak disliking effect (Emin), VAS: 480 mg oral tablet, after high-fat breakfast; for mean time to peak disliking: high responders; for mean peak disliking effect (Emin), VAS: high responders (six subjects)
Experimental: A total of 49 subjects were enrolled. […] As identified in the randomization schedule for each subject, subjects took each dose of study drug immediately following a standardized high-fat breakfast.
During the study, each subject completed a 100 point Visual Analog Scale (VAS) “Like/Dislike” Rating Scale at dosing and for up to 6 hours post-dosing where subjects were asked “Do you like or dislike the drug effect you are feeling now?”

[2] = intestinal pH reduced from pH 8 to pH 5; cited from earlier work
[3] = at pH 4.8; cited from earlier work
[4] = in the presence of food, VAS over 6 hours

SMILES | mean time to peak disliking [1] | mean peak disliking effect (Emin), VAS [1] | high responder subjects (of six) with lower VAS scores than with standard niacin ([1]; 480 mg, fed, six high responders) | faster time to peak disliking than standard particle size niacin [1, 4] | more substantial disliking effect than standard particle size niacin [1, 4] | enhancement of intestinal uptake [2] | fraction non-ionized [3]
O=C(O)c1cccnc1 [micronized niacin, niacin] | 2.25 h | −28.7 mm | five | 25% | 89% | – | –
O=C(O)c1cccnc1 [niacin] | – | – | – | – | – | approximately five fold | 50%
O=C(O)c1cccnc1 [standard niacin, niacin, reference compound] | 3.0 h | −15.3 mm | – | – | – | – | –
